From publication PMC12446476 (Nature Communications, 2025) come the findings set out here.

Assay [1] relates to intracellular N. gonorrhoeae. In words: Intracellular killing in HeLa229 cells. In kind it is cell-based, Neisseria gonorrhoeae. To be noted: within 24 h. The method, then:
Intracellular killing was assessed within HeLa229 cells (European Collection of Authenticated Cell Cultures, London, UK) that were seeded at ~3 × 10^5 cells/mL and grown to 70–80% confluence in RPMI-glutamine media supplemented with 10% (v/v) heat-inactivated fetal bovine serum (FBS, Gibco, MA, USA). Cells were incubated at 37 °C with 5% CO2 for 24 h, then washed with serum-free RPMI-1640 prior to infection. N. gonorrhoeae was scraped from agar plates and resuspended in Dulbecco’s Phosphate Buffered Saline (DPBS, Sigma-Aldrich), pelleted, then resuspended in RPMI with 2% FBS. Bacterial suspensions were used to infect HeLa229 cells at a multiplicity of infection of 100:1. Plates were briefly centrifuged (500 × g for 5 min), then incubated for one hour. This incubation and all subsequent incubations were performed at 37 °C with 5% CO2. Non-adherent cells were removed by washing with serum-free RPMI, and the remaining extracellular bacteria were killed via resuspension in RPMI-glutamine supplemented with 2% FBS and 200 μg/mL gentamycin and incubation for one hour. […] Azithromycin-treated samples were included for control/comparison. […] Samples were diluted and plated onto chocolate II agar for viable bacteria quantification. Intracellular killing assays were performed at Microbiologics, Kalamazoo, MI, USA, using a method adapted from previous studies[68],[69].

The test system of another assay is N. gonorrhoeae. The experiment in a line: MIC determination, agar dilution (CLSI). On AMR phenotype (susceptibility category, EUCAST): key: S susceptible; R resistant. In kind it is cell-based, Neisseria gonorrhoeae. To be noted: for MIC: Neisseria gonorrhoeae. In outline: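 For N. gonorrhoeae, WHO 2024 reference strains served as quality control, only whole doubling-dilution MICs were reported, and isolates were classified by EUCAST v14.0 breakpoints or ECOFF. Time-kill assays followed CLSI in Columbia broth with 1% IsoVitaleX, and viable counts came from plating serial dilutions on GC agar with IsoVitaleX.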
(Agar dilution tests growth on a series of plates holding different concentrations.)

Converted amounts (≈) assume the structure as drawn. Where two headings read alike, the source gives them in different places. A value given as a limit tells only on which side of the number the result lay.

Regarding `CC[C@H]1OC(=O)[C@H](C)[C@@H](O[C@H]2C[C@@](C)(OC)[C@@H](O)[C@H](C)O2)[C@H](C)[C@@H](O[C@@H]2O[C@H](C)C[C@H](N(C)C)[C@H]2O)[C@](C)(O)C[C@@H](C)CN(C)[C@H](C)[C@@H](O)[C@]1(C)O` [Azithromycin], the “reduction of intracellular bacteria” value is on record as no less than 3.3 log10CFU/mL in assay [1] (ATCC 49226 in HeLa229 cells) and no less than 2.8 log10CFU/mL in assay [1] (WHO X in HeLa229 cells).
As usually defined, the MIC is the smallest concentration in the dilution series that meets the test's criterion for growth inhibition. Take `CO/N=C(\C(=O)N[C@@H]1C(=O)N2C(C(=O)O)=C(CSc3nc(=O)c(=O)[nH]n3C)CS[C@H]12)c1csc(N)n1` [Ceftriaxone, reference compound]: the “susceptibility of all isolates” value in the assay on N. gonorrhoeae (100 contemporary clinical N. gonorrhoeae isolates, EUCAST) is reported as “susceptible”. In addition, the MIC in the assay with N. gonorrhoeae (ATCC700825, ATCC 700825, mode of multiple measures, read-out: MIC) was found to be 0.002 µg/mL (≈ 0.00361 µM); in the assay on N. gonorrhoeae (WHO H, agar dilution, read-out: MIC), 0.25 µg/mL (≈ 0.451 µM); in the assay with N. gonorrhoeae (WHO K, agar dilution, read-out: MIC), 0.06 µg/mL (≈ 0.108 µM); in the assay with N. gonorrhoeae (WHO L, agar dilution, read-out: MIC) it was 0.25 µg/mL (≈ 0.451 µM); in the assay with N. gonorrhoeae (WHO Q, agar dilution, read-out: MIC), 0.5 µg/mL (≈ 0.902 µM); with N. gonorrhoeae (WHO R, agar dilution, read-out: MIC), 0.5 µg/mL (≈ 0.902 µM). In addition, the MIC was less than 0.008 µg/mL in the assay on N. gonorrhoeae (WHO S2, agar dilution, read-out: MIC); 0.06 µg/mL (≈ 0.108 µM) in the assay with N. gonorrhoeae (WHO V, agar dilution, read-out: MIC); 2 µg/mL (≈ 3.61 µM) in the assay on N. gonorrhoeae (WHO X-07 (CIP-R, CRO-R), mode of multiple measures, read-out: MIC); 1 µg/mL (≈ 1.8 µM) against N. gonorrhoeae (WHO Y, agar dilution). The “AMR phenotype (susceptibility category, EUCAST)” value (“AMR phenotype” below) is reported as “S” in the assay with N. gonorrhoeae (WHO F); “R” in the assay on N. gonorrhoeae (WHO H); “S” in the assay on N. gonorrhoeae (WHO K); “R” in the assay with N. gonorrhoeae (WHO L); “S” with N. gonorrhoeae (WHO M); “S” in the assay on N. gonorrhoeae (WHO O). In addition, the “AMR phenotype” value in the assay on N. gonorrhoeae (WHO P) was “S”; in the assay with N. gonorrhoeae (WHO Q), “R”; in the assay on N. gonorrhoeae (WHO R), “R”; in the assay with N. gonorrhoeae (WHO S2), “S”; in the assay with N. gonorrhoeae (WHO U), “S”; in the assay on N. gonorrhoeae (WHO V), “S”. The “AMR phenotype” value with N. gonorrhoeae (WHO X), with N. gonorrhoeae (WHO Y) and with N. gonorrhoeae (WHO Z) was “R” each time.
